# Target: GST-tagged-Wee1 kinase (Homo sapiens, UniProt P30291)
# Assay: Wee1 time-resolved fluorescence equilibrium binding assay (displacement of Oregon Green-labeled ATP-competitive kinase probe)
# Protocol: Wee1 kinase was assayed using a time-resolved fluorescence equilibrium binding assay monitoring displacement of a rapidly reversible Oregon Green-labeled ATP-competitive kinase probe (N-(2-(2-(2-(4-(4-(5-chloro-4-(2-(1-hydroxycyclobutyl)thiazol-5-yl)-1H-pyrrolo[2,3-b]pyridin-2-yl)phenyl)piperazin-1-yl)ethoxy)ethoxy)ethyl)-2′,7′-difluoro-3′,6′-dihydroxy-3-oxo-3H-spiro[isobenzofuran-1,9′-xanthene]-5-carboxamide) by competitive Wee1 inhibitors.
# Sequence of GST-tagged-Wee1 kinase (P30291 whole entry): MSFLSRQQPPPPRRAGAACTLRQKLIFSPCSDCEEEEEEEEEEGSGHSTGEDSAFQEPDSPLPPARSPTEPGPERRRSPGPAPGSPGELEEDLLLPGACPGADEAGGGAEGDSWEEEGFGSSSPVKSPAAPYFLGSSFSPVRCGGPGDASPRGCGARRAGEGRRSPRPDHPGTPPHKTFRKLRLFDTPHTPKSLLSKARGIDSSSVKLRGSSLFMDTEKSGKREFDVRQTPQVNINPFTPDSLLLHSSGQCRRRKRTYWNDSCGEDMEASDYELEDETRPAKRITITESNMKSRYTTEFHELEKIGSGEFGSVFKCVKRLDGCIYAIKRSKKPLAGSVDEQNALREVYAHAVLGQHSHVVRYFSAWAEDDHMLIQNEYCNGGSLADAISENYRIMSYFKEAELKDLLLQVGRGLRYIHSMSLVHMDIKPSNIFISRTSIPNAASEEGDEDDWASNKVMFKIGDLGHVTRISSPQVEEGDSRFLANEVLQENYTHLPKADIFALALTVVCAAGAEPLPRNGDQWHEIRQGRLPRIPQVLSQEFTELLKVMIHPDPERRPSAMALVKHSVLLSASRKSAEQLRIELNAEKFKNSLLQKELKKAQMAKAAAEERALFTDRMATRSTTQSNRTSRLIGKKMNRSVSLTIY
row,Ki [nM],SMILES
1,0.3,"CN1CCN(c2ccc(Nc3ncc4c(=O)n(-c5c(Cl)cccc5Cl)nc(-c5ccnc(C(=O)N6CCCC6)c5)c4n3)cc2)CC1 [Example 225, 6-(2,6-dichlorophenyl)-2-{[4-(4-methylpiperazin-1-yl)phenyl]amino}-8-[2-(pyrrolidin-1-ylcarbonyl)pyridin-4-yl]pyrimido[4,5-d]pyridazin-5(6H)-one]"
2,< 1,"O=c1c2cnc(Nc3ccc(N4CCNCC4)cc3)nc2c(-c2cccc(F)n2)nn1-c1c(Cl)cccc1Cl [Example 226, 6-(2,6-dichlorophenyl)-8-(6-fluoropyridin-2-yl)-2-{[4-(piperazin-1-yl)phenyl]amino}pyrimido[4,5-d]pyridazin-5(6H)-one]"
3,< 1,"CN1Cc2cc(Nc3ncc4c(=O)n(-c5c(Cl)cccc5Cl)nc(-c5cccc(F)n5)c4n3)ccc2C2(CC2)C1 [Example 227, 6-(2,6-dichlorophenyl)-8-(6-fluoropyridin-2-yl)-2-[(2′-methyl-2′,3′-dihydro-1′H-spiro[cyclopropane-1,4′-isoquinolin]-7′-yl)amino]pyrimido[4,5-d]pyridazin-5(6H)-one]"
4,3,"C=CCn1nc(-c2ccco2)c2nc(Nc3ccc(N4CCCN(C(C)C)CC4)c(C)c3)ncc2c1=O [Example 228, 8-(furan-2-yl)-2-({3-methyl-4-[4-(propan-2-yl)-1,4-diazepan-1-yl]phenyl}amino)-6-(prop-2-en-1-yl)pyrimido[4,5-d]pyridazin-5(6H)-one]"
5,0.2,"O=C1CCCN1c1ccc(-c2nn(-c3c(Cl)cccc3Cl)c(=O)c3cnc(Nc4ccc(N5CCNCC5)cc4)nc23)cc1 [Example 229, 6-(2,6-dichlorophenyl)-8-[4-(2-oxopyrrolidin-1-yl)phenyl]-2-{[4-(piperazin-1-yl)phenyl]amino}pyrimido[4,5-d]pyridazin-5(6H)-one]"
6,5,"C=CCn1nc(-c2ccccc2)c2nc(Nc3ccc4c(c3)CN(C)CC4)ncc2c1=O [Example 230, 2-[(2-methyl-1,2,3,4-tetrahydroisoquinolin-7-yl)amino]-8-phenyl-6-(prop-2-en-1-yl)pyrimido[4,5-d]pyridazin-5(6H)-one]"
7,0.1,"CN1CCN(c2ccc(Nc3ncc4c(=O)n(-c5c(Cl)cccc5Cl)nc(-c5cc[nH]n5)c4n3)cc2)CC1 [Example 231, 6-(2,6-dichlorophenyl)-2-{[4-(4-methylpiperazin-1-yl)phenyl]amino}-8-(1H-pyrazol-3-yl)pyrimido[4,5-d]pyridazin-5(6H)-one]"
8,0.2,"CN1CCN(c2ccc(Nc3ncc4c(=O)n(-c5c(Cl)cccc5Cl)nc(-c5ccn(CCN6CCCCC6)n5)c4n3)cc2)CC1 [Example 232, 6-(2,6-dichlorophenyl)-2-{[4-(4-methylpiperazin-1-yl)phenyl]amino}-8-{1-[2-(piperidin-1-yl)ethyl]-1H-pyrazol-3-yl}pyrimido[4,5-d]pyridazin-5(6H)-one]"
9,0.3,"Cc1ccccc1-n1nc(-c2ccco2)c2nc(Nc3ccc4c(c3)CN(C)CC4)ncc2c1=O [Example 233, 8-(furan-2-yl)-6-(2-methylphenyl)-2-[(2-methyl-1,2,3,4-tetrahydroisoquinolin-7-yl)amino]pyrimido[4,5-d]pyridazin-5(6H)-one]"
10,0.3,"CN1CCN(c2ccc(Nc3ncc4c(=O)n(-c5c(Cl)cccc5Cl)nc(-c5ccn(CCCl)n5)c4n3)cc2)CC1 [Example 234, 8-[1-(2-chloroethyl)-1H-pyrazol-3-yl]-6-(2,6-dichlorophenyl)-2-{[4-(4-methylpiperazin-1-yl)phenyl]amino}pyrimido[4,5-d]pyridazin-5(6H)-one]"
11,0.1,"CN1CCN(c2ccc(Nc3ncc4c(=O)n(-c5c(Cl)cccc5Cl)nc(-c5ccn(CCN)n5)c4n3)cc2)CC1 [Example 235, 8-[1-(2-aminoethyl)-1H-pyrazol-3-yl]-6-(2,6-dichlorophenyl)-2-{[4-(4-methylpiperazin-1-yl)phenyl]amino}pyrimido[4,5-d]pyridazin-5(6H)-one]"
12,< 1,"C=Cn1ccc(-c2nn(-c3c(Cl)cccc3Cl)c(=O)c3cnc(Nc4ccc(N5CCN(C)CC5)cc4)nc23)n1 [Example 236, 6-(2,6-dichlorophenyl)-8-(1-ethenyl-1H-pyrazol-3-yl)-2-{[4-(4-methylpiperazin-1-yl)phenyl]amino}pyrimido[4,5-d]pyridazin-5(6H)-one]"
13,0.2,"O=c1c2cnc(Nc3ccc(N4CCNCC4)cc3)nc2c(-c2cccc(CN3CCCCC3)c2)nn1-c1c(Cl)cccc1Cl [Example 237, 6-(2,6-dichlorophenyl)-2-{[4-(piperazin-1-yl)phenyl]amino}-8-[3-(piperidin-1-ylmethyl)phenyl]pyrimido[4,5-d]pyridazin-5(6H)-one]"
14,34,"CC1(C)CNCc2cc(Nc3ncc4c(=O)n(-c5ccncc5)nc(-c5ccccn5)c4n3)ccc21 [Example 238, 2-[(4,4-dimethyl-1,2,3,4-tetrahydroisoquinolin-7-yl)amino]-8-(pyridin-2-yl)-6-(pyridin-4-yl)pyrimido[4,5-d]pyridazin-5(6H)-one]"
15,25,"CN1Cc2cc(Nc3ncc4c(=O)n(-c5ccncc5)nc(-c5ccccn5)c4n3)ccc2C(C)(C)C1 [Example 239, 8-(pyridin-2-yl)-6-(pyridin-4-yl)-2-[(2,4,4-trimethyl-1,2,3,4-tetrahydroisoquinolin-7-yl)amino]pyrimido[4,5-d]pyridazin-5(6H)-one]"
16,0.5,"CN(C)CCn1ccc(-c2nn(-c3c(Cl)cccc3Cl)c(=O)c3cnc(Nc4ccc(N5CCN(C)CC5)cc4)nc23)n1 [Example 240, 6-(2,6-dichlorophenyl)-8-{1-[2-(dimethylamino)ethyl]-1H-pyrazol-3-yl}-2-{[4-(4-methylpiperazin-1-yl)phenyl]amino}pyrimido[4,5-d]pyridazin-5(6H)-one]"
17,0.1,"CN1Cc2cc(Nc3ncc4c(=O)n(-c5c(Cl)cccc5Cl)nc(-c5ccccn5)c4n3)ccc2C(C)(C)C1 [Example 241, 6-(2,6-dichlorophenyl)-8-(pyridin-2-yl)-2-[(2,4,4-trimethyl-1,2,3,4-tetrahydroisoquinolin-7-yl)amino]pyrimido[4,5-d]pyridazin-5(6H)-one]"
18,50,"CN1Cc2cc(Nc3ncc4c(=O)n(CCO)nc(-c5ccccn5)c4n3)ccc2C(C)(C)C1 [Example 242, 6-(2-hydroxyethyl)-8-(pyridin-2-yl)-2-[(2,4,4-trimethyl-1,2,3,4-tetrahydroisoquinolin-7-yl)amino]pyrimido[4,5-d]pyridazin-5(6H)-one]"
19,< 1,"CN1CCN(c2ccc(Nc3ncc4c(=O)n(-c5c(Cl)cccc5Cl)nc(-c5cccc(F)n5)c4n3)cc2)CC1 [Example 243, 6-(2,6-dichlorophenyl)-8-(6-fluoropyridin-2-yl)-2-{[4-(4-methylpiperazin-1-yl)phenyl]amino}pyrimido[4,5-d]pyridazin-5(6H)-one]"
20,0.5,"CN1CCN(c2ccc(Nc3ncc4c(=O)n(-c5c(Cl)cccc5Cl)nc(-c5ccc(N6CCCC6=O)cc5)c4n3)cc2)CC1 [Example 244, 6-(2,6-dichlorophenyl)-2-{[4-(4-methylpiperazin-1-yl)phenyl]amino}-8-[4-(2-oxopyrrolidin-1-yl)phenyl]pyrimido[4,5-d]pyridazin-5(6H)-one]"
21,0.7,"CN1CCc2ccc(Nc3ncc4c(=O)n(-c5ccccc5Cl)nc(-c5ccccc5)c4n3)cc2C1 [Example 245, 6-(2-chlorophenyl)-2-[(2-methyl-1,2,3,4-tetrahydroisoquinolin-7-yl)amino]-8-phenylpyrimido[4,5-d]pyridazin-5(6H)-one]"

# Source: patent publication US8796289B2 (AbbVie Inc., priority 2011, dated 2014)
